“Also recorded” adds a separate entry of the source.
How the values were obtained:
Assay type in all cases: physicochemical
[1] = Guanidinium chloride (GnCl) titration monitored by near-UV CD at 280 nm; settings: standard aqueous conditions at 25° C.; extrapolated from variable GnCl concentration near-UV CD data (280 nm), 50 μM protein
Description: CD spectra were collected using an Aviv (Lakewood, N.J.) stopped flow CD Spectropolarimeter Model 202SF. The far-UV (190-260 nm) CD spectra were obtained using a 1 mm path length cell and in 10 mM PBS buffer at a pH of 7.5 at 100 μM protein concentrations. The near-UV (245-320 nm) CD spectra were obtained using a 1 cm path length cell and in 10 mM PBS buffer at a pH of 7.5 at 50 μM concentrations. The consensus CD spectra were established as the Gaussian weighted average of 40 scans with evaluation of ellipticity every 0.5 nm, each having an averaging time of 0.5 s. […] Concentrations of protein stock solutions for conversion of millidegrees to mean residue ellipticity (MRE) were determined by UV absorbance at 280 nm using the standard extinction coefficients for the tryptophan (5690 M-1 cm-1), tyrosine (1280M-1 cm-1), and disulfide-bridged cysteine (125M-1 cm-1) chromophores in 6 M GnCl. […]
Secondary and tertiary structure content of the mini-protein was initially evaluated using circular dichroism (CD) spectroscopy (FIG. 4A,B). In the near-UV (260-320 nm) CD spectrum, ellipticity can arise from indole and phenol absorbance bands when tryptophan or tyrosine side chains are present in an asymmetric environment. […]

[2] = Sedimentation equilibrium analysis; settings: concentration of 1.8 mM at 4° C.
Description: Sedimentation equilibrium measurements were carried out on a Beckman (Brea, Calif.) XL-A analytical ultracentrifuge equipped with absorption optics and an An-60 Ti rotor. Analysis was conducted at rotor speeds of 45,000 and 48,000 rpm at 4° C. Data were acquired at two wavelengths per rotor speed setting and processed globally for the best fit to a single-species model of absorbance versus radial distance. Solvent density and protein partial specific volume were calculated according to solvent and protein composition, respectively.
The native sequence on which to initiate the mini-protein design was chosen based on two primary criteria. First, the present inventors sought a sequence containing a loop featuring a β-hairpin, which could be nucleated using a D-Pro-Gly motif (2, 7). Most of the loop regions observed in WSXWS motifs are lacking in canonical forms of secondary structure that could be enforced with rational peptide design (FIG. 2). Second, the present inventors wanted a sequence containing three arginine residues on the β-strand portion of the fold composing the cation-π interaction network. The only sequence meeting these two criteria was that of the WSXWS motif found in IL3RB (UniprotID: P32927). […] The apparent molecular mass was within 10% of that calculated for an ideal monomer, with no systematic deviation of the residuals. […]

[3] = Near-UV CD thermal melts monitoring mean residue ellipticity at 280 nm; settings: 10 mM PBS buffer pH 7.5, elevated temperatures
Description: FIGS. 6A-6B. Near-UV CD thermal melts for the TrpPlexus cation-π interation network mutants. (6A) Schematic of the cation-π network of TrpPlexus detailing variable amino acid positions 1, 3, and 5 in the mutant sequences. (6B) Near-UV CD thermal melts for TrpPlexus (“RRR”) and each mutant monitoring mean residue ellipticity at 280 nm (50 μM protein, 1 cm path length, 10 mM PBS buffer pH 7.5). Inset compares side-chain functionalities of the arginine (R), lysine (K), and L-citrulline (Cit) residues.
CD spectra were collected using an Aviv (Lakewood, N.J.) stopped flow CD Spectropolarimeter Model 202SF. […] Concentrations of protein stock solutions for conversion of millidegrees to mean residue ellipticity (MRE) were determined by UV absorbance at 280 nm using the standard extinction coefficients for the tryptophan (5690 M-1 cm-1), tyrosine (1280M-1 cm-1), and disulfide-bridged cysteine (125M-1 cm-1) chromophores in 6 M GnCl. […]
To explore the influence of cationic groups on fold stability, mutants were designed that replaced particular guanidinyl (arginine) side chain groups with either amino (lysine) cations or charge-neutral urea (L-citrulline) groups (FIG. 6). The near-UV CD signal monitored at 280 nm provides a metric of relative tertiary structure content (FIG. 6B). […]

ΔG° for folding [1]: approximately −6.7 kcal/mol
oligomeric state by sedimentation equilibrium [2]: monomeric
Substance: RVRVRTSRpGYNGTWSEWS [TrpPlexus]
near-UV CD signal as a function of temperature (thermostability) [3]: slightly increase in strength at elevated temperatures, indicating thermostability; also recorded: weakly sigmoidal transitions to stronger ellipticities at elevated temperatures
